Biological target: JNK3 (Homo sapiens, UniProt P53779)
Test: JNK3 SPA assay
Type: biochemical
Conditions: 3.33 μM ATP, GST-c-Jun substrate; read-out: IC50 against JNK3
Method in brief: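 Radiometric SPA using GST-c-Jun with [γ-33P]ATP in 25 mM HEPES pH 7.5 and 10 mM Mg acetate; the substrate solution held 3.33 µM ATP (JNK2/3) or 2 µM ATP (JNK1). Reactions ran 30 min at room temperature and were stopped with glutathione SPA beads plus 40 mM ATP. IC50 is the concentration halving c-Jun phosphorylation versus control.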

JNK3, sequence (P53779 whole entry, species assumed): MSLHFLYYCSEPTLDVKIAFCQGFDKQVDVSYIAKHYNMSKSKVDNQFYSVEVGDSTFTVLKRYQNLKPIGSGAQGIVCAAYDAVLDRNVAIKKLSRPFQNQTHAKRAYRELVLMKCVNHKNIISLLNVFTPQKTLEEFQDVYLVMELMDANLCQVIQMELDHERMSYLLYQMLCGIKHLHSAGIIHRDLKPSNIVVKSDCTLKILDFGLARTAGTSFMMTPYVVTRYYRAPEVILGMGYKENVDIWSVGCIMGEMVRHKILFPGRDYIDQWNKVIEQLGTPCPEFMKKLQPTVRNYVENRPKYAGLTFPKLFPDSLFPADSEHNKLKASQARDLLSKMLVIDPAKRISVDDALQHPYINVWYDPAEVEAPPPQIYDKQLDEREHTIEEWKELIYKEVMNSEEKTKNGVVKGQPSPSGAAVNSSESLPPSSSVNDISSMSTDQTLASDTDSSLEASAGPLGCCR

Molecule	IC50 [nM]
Cc1c(-c2c[nH]c3ncc([C@H]4CC[C@@H](N5CCOCC5)CC4)cc23)cnn1C [Compound I-96, 4-((1s,4s)-4-(3-(1,5-dimethyl-1H-pyrazol-4-yl)-1H-pyrrolo[2,3-b]pyridin-5-yl)cyclohexyl)morpholine]	1700
CN[C@@H]1C[C@H]2C=C(c3cnc4[nH]cc(-c5cnn(C)c5)c4c3)C[C@H](C2)C1 (relative stereo) [Compound I-151, trans N-methyl-7-(3-(1-methyl-1H-pyrazol-4-yl)-1H-pyrrolo[2,3-b]pyridin-5-yl)bicyclo[3.3.1]non-6-en-3-amine]	347
Cn1cc(-c2c[nH]c3ncc([C@H]4CC[C@@H](NC5CCOCC5)CC4)cc23)cn1 [Compound I-128, N-((1s,4s)-4-(3-(1-methyl-1H-pyrazol-4-yl)-1H-pyrrolo[2,3-b]pyridin-5-yl)cyclohexyl)tetrahydro-2H-pyran-4-amine]	794
Cn1cc(-c2c[nH]c3ncc([C@H]4CC[C@H](N5CC[C@H](F)C5)CC4)cc23)cn1 [Compound I-50, 5-((1S,4r)-4-((S)-3-fluoropyrrolidin-1-yl)cyclohexyl)-3-(1-methyl-1H-pyrazol-4-yl)-1H-pyrrolo[2,3-b]pyridine]	214
C[C@H]1COCCN1[C@H]1CC[C@H](c2cnc3[nH]cc(-c4cnn(C)c4)c3c2)CC1 [Compound I-103, (S)-3-methyl-4-((1r,4S)-4-(3-(1-methyl-1H-pyrazol-4-yl)-1H-pyrrolo[2,3-b]pyridin-5-yl)cyclohexyl)morpholine]	263
CC1CCCCC1c1cnc2[nH]cc(-c3cnn(C)c3)c2c1 (mixture of isomers) [Compound I-33, 3-(1-methyl-1H-pyrazol-4-yl)-5-(2-methylcyclohexyl)-1H-pyrrolo[2,3-b]pyridine]	110
Cn1cc(-c2c[nH]c3ncc([C@]4(F)CC[C@@H](N5CCOCC5)CC4)cc23)cn1 [Compound I-162, 4-((1s,4s)-4-fluoro-4-(3-(1-methyl-1H-pyrazol-4-yl)-1H-pyrrolo[2,3-b]pyridin-5-yl)cyclohexyl)morpholine]	> 2000
Cn1cc(-c2c[nH]c3ncc(C4CCCCCC4)cc23)cn1 [Compound I-17, 5-cycloheptyl-3-(1-methyl-1H-pyrazol-4-yl)-1H-pyrrolo[2,3-b]pyridine]	162
Cn1cc(-c2c[nH]c3ncc([C@H]4CC[C@H](N5CCCCC5)CC4)cc23)cn1 [Compound I-45, 3-(1-methyl-1H-pyrazol-4-yl)-5-((1r,4r)-4-(piperidin-1-yl)cyclohexyl)-1H-pyrrolo[2,3-b]pyridine]	166
Cn1cc(-c2c[nH]c3ncc(C4=CCC(C(C)(C)C)CC4)cc23)cn1 (centres unmarked) [Compound I-2, 5-(4-tert-butylcyclohex-1-enyl)-3-(1-methyl-1H-pyrazol-4-yl)-1H-pyrrolo[2,3-b]pyridine]	199
Cn1cc(-c2c[nH]c3ncc(C4=CC5CC(=O)CC(C4)C5)cc23)cn1 (centres unmarked) [Compound I-145, 7-(3-(1-methyl-1H-pyrazol-4-yl)-1H-pyrrolo[2,3-b]pyridin-5-yl)bicyclo[3.3.1]non-6-en-3-one]	167
Cn1cc(-c2c[nH]c3ncc(C4=CCC(N5CCOCC5)CC4)cc23)cn1 (centres unmarked) [Compound I-75, 3-(1-Methyl-1H-pyrazol-4-yl)-5-(4-morpholin-4-yl-cyclohex-1-enyl)-1H-pyrrolo[2,3-b]pyridine]	89
CC1CC=C(c2cnc3[nH]cc(-c4cnn(C)c4)c3c2)CC1 (centres unmarked) [Compound I-1, 3-(1-methyl-1H-pyrazol-4-yl)-5-(4-methylcyclohex-1-enyl)-1H-pyrrolo[2,3-b]pyridine]	18
Cn1cc(-c2c[nH]c3ncc(C4=C[C@H]5O[C@@H]4C[C@H]5C#N)cc23)cn1 [I-155 endo, (1R,2S,4R)-5-(3-(1-methyl-1H-pyrazol-4-yl)-1H-pyrrolo[2,3-b]pyridin-5-yl)-7-oxabicyclo[2.2.1]hept-5-ene-2-carbonitrile]	174
Cn1cc(-c2c[nH]c3ncc([C@H]4CC[C@@H](N5CCCCC5)CC4)cc23)cn1 [Compound I-46, 3-(1-methyl-1H-pyrazol-4-yl)-5-((1s,4s)-4-(piperidin-1-yl)cyclohexyl)-1H-pyrrolo[2,3-b]pyridine]	151
Mixture of 3-(1-methyl-1H-pyrazol-4-yl)-5-(6-methylcyclohex-1-enyl)-1H-pyrrolo[2,3-b]pyridine and 3-(1-methyl-1H-pyrazol-4-yl)-5-(2-methylcyclohex-1-enyl)-1H-pyrrolo[2,3-b]pyridine [Compound I-30]	170
Cn1cc(-c2c[nH]c3ncc(C4CCC(N5CCC5)CC4)cc23)cn1 (centres unmarked) [Compound I-41, 5-(4-(azetidin-1-yl)cyclohexyl)-3-(1-methyl-1H-pyrazol-4-yl)-1H-pyrrolo[2,3-b]pyridine]	103
Cn1cc(-c2c[nH]c3ncc([C@H]4CC[C@H](N5CC[C@@H](F)C5)CC4)cc23)cn1 [Compound I-54, 5-((1R,4r)-4-((R)-3-fluoropyrrolidin-1-yl)cyclohexyl)-3-(1-methyl-1H-pyrazol-4-yl)-1H-pyrrolo[2,3-b]pyridine]	174
CN1C2C=C(c3cnc4[nH]cc(-c5cnn(C)c5)c4c3)CC1CC2 (centres unmarked) [Compound I-143, 3-(1-methyl-1H-pyrazol-4-yl)-5-(8-methyl-8-azabicyclo[3.2.1]oct-3-en-3-yl)-1H-pyrrolo[2,3-b]pyridine]	> 500

More lines, now with the values ahead:

IC50 [nM]	Molecule
316	CCCN(CC)[C@H]1CC[C@H](c2cnc3[nH]cc(-c4cnn(C)c4)c3c2)CC1 [Compound I-113, (1r,4r)-N-ethyl-4-(3-(1-methyl-1H-pyrazol-4-yl)-1H-pyrrolo[2,3-b]pyridin-5-yl)-N-propylcyclohexanamine]
363	CCCN(CCOC)[C@H]1CC[C@H](c2cnc3[nH]cc(-c4cnn(C)c4)c3c2)CC1 [Compound I-121, (1r,4r)-N-(2-methoxyethyl)-4-(3-(1-methyl-1H-pyrazol-4-yl)-1H-pyrrolo[2,3-b]pyridin-5-yl)-N-propylcyclohexanamine]
> 500	Cn1cc(-c2c[nH]c3ncc([C@H]4CC[C@@H](C(=O)O)CC4)cc23)cn1 [Compound I-77, (1s,4s)-4-(3-(1-methyl-1H-pyrazol-4-yl)-1H-pyrrolo[2,3-b]pyridin-5-yl)cyclohexanecarboxylic acid]
257	CCOCCN[C@H]1CC[C@H](c2cnc3[nH]cc(-c4cnn(C)c4)c3c2)CC1 [Compound I-119, (1r,4r)-N-(2-ethoxyethyl)-4-(3-(1-methyl-1H-pyrazol-4-yl)-1H-pyrrolo[2,3-b]pyridin-5-yl)cyclohexanamine]
251	Cn1cc(-c2c[nH]c3ncc([C@H]4CC[C@H](C(=O)O)CC4)cc23)cn1 [Compound I-76, (1r,4r)-4-(3-(1-methyl-1H-pyrazol-4-yl)-1H-pyrrolo[2,3-b]pyridin-5-yl)cyclohexanecarboxylic acid]
468	CCN(C(C)C)C1CCC(c2cnc3[nH]cc(-c4cnn(C)c4)c3c2)CC1 (mixture of isomers) [Compound I-133, N-ethyl-N-isopropyl-4-(3-(1-methyl-1H-pyrazol-4-yl)-1H-pyrrolo[2,3-b]pyridin-5-yl)cyclohexanamine]
257	CCN(CCOC)[C@H]1CC[C@@H](c2cnc3[nH]cc(-c4cnn(C)c4)c3c2)CC1 [Compound I-124, (1s,4s)-N-ethyl-N-(2-methoxyethyl)-4-(3-(1-methyl-1H-pyrazol-4-yl)-1H-pyrrolo[2,3-b]pyridin-5-yl)cyclohexanamine]
355	CCN(C)[C@H]1CC[C@@H](c2cnc3[nH]cc(-c4cnn(C)c4)c3c2)CC1 [Compound I-110, (1s,4s)-N-ethyl-N-methyl-4-(3-(1-methyl-1H-pyrazol-4-yl)-1H-pyrrolo[2,3-b]pyridin-5-yl)cyclohexanamine]
40	CN(C)C1CCC(c2cnc3[nH]cc(-c4cnn(C)c4)c3c2)CC1 (centres unmarked) [Compound I-9, N,N-dimethyl-4-(3-(1-methyl-1H-pyrazol-4-yl)-1H-pyrrolo[2,3-b]pyridin-5-yl)cyclohexanamine]
320	CC(C)N[C@H]1CC[C@H](c2cnc3[nH]cc(-c4cnn(C)c4)c3c2)CC1 [Compound I-105, (1r,4r)-N-isopropyl-4-(3-(1-methyl-1H-pyrazol-4-yl)-1H-pyrrolo[2,3-b]pyridin-5-yl)cyclohexanamine]
263	CCNC1CCC(c2cnc3[nH]cc(-c4cnn(C)c4)c3c2)CC1 (centres unmarked) [Compound I-55, Ethyl-{4-[3-(1-methyl-1H-pyrazol-4-yl)-1H-pyrrolo[2,3-b]pyridin-5-yl]-cyclohexyl}-amine]
25	CCC1CCC(c2cnc3[nH]cc(-c4cnn(C)c4)c3c2)CC1 (mixture of isomers) [Compound I-22, 5-(4-ethylcyclohexyl)-3-(1-methyl-1H-pyrazol-4-yl)-1H-pyrrolo[2,3-b]pyridine]
251	CCN(CCO)C1CCC(c2cnc3[nH]cc(-c4cnn(C)c4)c3c2)CC1 (mixture of isomers) [Compound I-131, 2-(ethyl(4-(3-(1-methyl-1H-pyrazol-4-yl)-1H-pyrrolo[2,3-b]pyridin-5-yl)cyclohexyl)amino)ethanol]

From patent publication US8178552B2, “7-Azaindole derivatives and their use in the inhibition of c-Jun N-terminal kinase” (Eisai R&D Management Co., Ltd., priority 2008, dated 2012)
